The values that follow come from paper PMC12670164, “In vitro and clinical data demonstrate negligible risk of drug–drug interactions with opelconazole, a novel inhaled antifungal agent” (Journal of Antimicrobial Chemotherapy, 2025).

In series [1] the test system is Aspergillus fumigatus clinical strains. Set-up: method as in PMID 33340279. The note with it: cited from earlier work.
The target of a further series is T1, MATE2-K (Homo sapiens, UniProt Q86VL8).
T1 construct: expressed in transfected cells
T1 sequence (Q86VL8 1-566 isoform Q86VL8-3): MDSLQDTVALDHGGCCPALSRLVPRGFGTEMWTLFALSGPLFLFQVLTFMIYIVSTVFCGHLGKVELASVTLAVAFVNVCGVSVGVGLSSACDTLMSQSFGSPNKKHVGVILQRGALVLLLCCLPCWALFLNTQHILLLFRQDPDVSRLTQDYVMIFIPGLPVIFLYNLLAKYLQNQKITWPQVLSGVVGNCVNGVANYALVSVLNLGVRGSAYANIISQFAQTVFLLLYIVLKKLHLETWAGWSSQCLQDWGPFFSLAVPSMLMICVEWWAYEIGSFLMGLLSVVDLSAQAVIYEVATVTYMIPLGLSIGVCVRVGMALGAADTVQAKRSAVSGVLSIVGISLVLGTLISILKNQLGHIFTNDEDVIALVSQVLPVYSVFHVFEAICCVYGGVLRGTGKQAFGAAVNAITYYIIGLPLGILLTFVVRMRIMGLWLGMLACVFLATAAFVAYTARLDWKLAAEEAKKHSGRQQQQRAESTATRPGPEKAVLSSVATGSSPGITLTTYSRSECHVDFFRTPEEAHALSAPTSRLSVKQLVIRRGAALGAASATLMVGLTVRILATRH
In words: Transporter inhibition. The series is classed as in vitro ADME. Here is the method: (§1) Human transporter protein interactions with opelconazole as a potential substrate and/or inhibitor were assessed for the following key carrier transporters: organic anion transporters, OAT1 and OAT3; organic cation transporters, OCT1 and OCT2; OATP1B1 and OATP1B3; multidrug and toxin extrusion, MATE-1 and MATE2-K; key ATP-binding cassette (ABC) transporters including P-gp, breast cancer resistance protein (BCRP) and bile salt export pump (BSEP). Two concentrations of opelconazole, 0.5 and 5 μM, were tested using MDCKII cells, human embryonic kidney 293 cells and BSEP-transfected sf9 membrane vesicles and then analysed by LC-tandem MS to determine transporter inhibition and whether opelconazole was a transporter substrate. The viability of experimental test systems was confirmed with controls and known probe substrates and probe inhibitors.

The next series has as its target T2, OAT1 (Homo sapiens, UniProt Q4U2R8).
T2 construct: expressed in transfected cells
T2 sequence (Q4U2R8 1-563): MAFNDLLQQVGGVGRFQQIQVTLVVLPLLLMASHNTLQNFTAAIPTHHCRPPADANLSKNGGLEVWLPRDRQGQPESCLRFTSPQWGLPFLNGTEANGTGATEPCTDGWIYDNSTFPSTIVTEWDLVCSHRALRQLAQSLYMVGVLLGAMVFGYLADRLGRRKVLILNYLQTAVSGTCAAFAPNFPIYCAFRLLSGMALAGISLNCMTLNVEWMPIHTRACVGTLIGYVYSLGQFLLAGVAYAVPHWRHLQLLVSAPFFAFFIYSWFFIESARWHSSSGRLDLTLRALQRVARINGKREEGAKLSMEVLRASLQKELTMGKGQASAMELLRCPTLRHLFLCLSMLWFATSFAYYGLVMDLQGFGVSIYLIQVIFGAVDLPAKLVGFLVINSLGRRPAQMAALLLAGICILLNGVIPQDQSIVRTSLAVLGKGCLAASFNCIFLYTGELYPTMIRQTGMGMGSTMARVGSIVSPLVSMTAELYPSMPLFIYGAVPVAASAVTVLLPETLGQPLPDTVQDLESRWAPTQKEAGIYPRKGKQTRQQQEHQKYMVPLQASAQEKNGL
The experiment in a line: Transporter inhibition. It counts as in vitro ADME. The note with it: 0.5 and 5 μM tested. The protocol:
as §1

The target of another series is T3, OAT3 (Homo sapiens, UniProt Q8TCC7).
T3 construct: expressed in transfected cells
T3 sequence (Q8TCC7 1-542): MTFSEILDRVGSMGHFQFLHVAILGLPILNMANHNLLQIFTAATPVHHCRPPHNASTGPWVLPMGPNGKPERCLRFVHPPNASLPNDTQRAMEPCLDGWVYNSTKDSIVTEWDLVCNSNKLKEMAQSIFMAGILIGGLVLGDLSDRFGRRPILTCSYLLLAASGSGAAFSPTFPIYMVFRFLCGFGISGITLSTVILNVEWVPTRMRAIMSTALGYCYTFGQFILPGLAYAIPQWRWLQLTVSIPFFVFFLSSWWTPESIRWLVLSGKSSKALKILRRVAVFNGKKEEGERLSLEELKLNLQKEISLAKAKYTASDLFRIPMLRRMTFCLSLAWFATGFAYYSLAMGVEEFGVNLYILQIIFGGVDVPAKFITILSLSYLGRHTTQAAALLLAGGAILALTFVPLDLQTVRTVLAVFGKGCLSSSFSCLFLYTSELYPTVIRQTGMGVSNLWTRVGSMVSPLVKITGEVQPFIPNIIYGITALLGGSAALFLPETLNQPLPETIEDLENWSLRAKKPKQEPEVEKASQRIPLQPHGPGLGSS
In words: Transporter inhibition. It counts as in vitro ADME. Particulars: 0.5 and 5 μM tested. Here is the method: as §1

The next series has as its target T4, OCT2 (Homo sapiens, UniProt O15244).
T4 construct: expressed in transfected cells
T4 sequence (O15244 1-555): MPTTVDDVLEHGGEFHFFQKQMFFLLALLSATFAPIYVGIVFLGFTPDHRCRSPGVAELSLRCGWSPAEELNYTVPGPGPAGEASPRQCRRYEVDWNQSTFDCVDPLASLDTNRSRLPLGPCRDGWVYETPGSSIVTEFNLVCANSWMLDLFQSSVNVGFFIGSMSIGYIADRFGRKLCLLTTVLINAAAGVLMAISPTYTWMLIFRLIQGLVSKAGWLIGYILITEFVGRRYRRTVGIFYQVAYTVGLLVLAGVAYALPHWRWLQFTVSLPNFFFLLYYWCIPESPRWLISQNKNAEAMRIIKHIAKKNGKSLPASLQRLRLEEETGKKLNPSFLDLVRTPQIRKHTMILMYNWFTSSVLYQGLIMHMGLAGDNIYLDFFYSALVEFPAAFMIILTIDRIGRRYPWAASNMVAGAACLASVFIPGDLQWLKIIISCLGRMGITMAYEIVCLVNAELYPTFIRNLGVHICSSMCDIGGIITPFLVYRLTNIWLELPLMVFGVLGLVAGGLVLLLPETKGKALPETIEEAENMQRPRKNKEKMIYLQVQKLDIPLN
The experiment in a line: Transporter inhibition. The series is classed as in vitro ADME. Here is the method:
as §1

A further series concerns the target T5, OATP1B3 (Homo sapiens, UniProt Q9NPD5).
T5 construct: expressed in transfected cells
T5 sequence (Q9NPD5 1-702): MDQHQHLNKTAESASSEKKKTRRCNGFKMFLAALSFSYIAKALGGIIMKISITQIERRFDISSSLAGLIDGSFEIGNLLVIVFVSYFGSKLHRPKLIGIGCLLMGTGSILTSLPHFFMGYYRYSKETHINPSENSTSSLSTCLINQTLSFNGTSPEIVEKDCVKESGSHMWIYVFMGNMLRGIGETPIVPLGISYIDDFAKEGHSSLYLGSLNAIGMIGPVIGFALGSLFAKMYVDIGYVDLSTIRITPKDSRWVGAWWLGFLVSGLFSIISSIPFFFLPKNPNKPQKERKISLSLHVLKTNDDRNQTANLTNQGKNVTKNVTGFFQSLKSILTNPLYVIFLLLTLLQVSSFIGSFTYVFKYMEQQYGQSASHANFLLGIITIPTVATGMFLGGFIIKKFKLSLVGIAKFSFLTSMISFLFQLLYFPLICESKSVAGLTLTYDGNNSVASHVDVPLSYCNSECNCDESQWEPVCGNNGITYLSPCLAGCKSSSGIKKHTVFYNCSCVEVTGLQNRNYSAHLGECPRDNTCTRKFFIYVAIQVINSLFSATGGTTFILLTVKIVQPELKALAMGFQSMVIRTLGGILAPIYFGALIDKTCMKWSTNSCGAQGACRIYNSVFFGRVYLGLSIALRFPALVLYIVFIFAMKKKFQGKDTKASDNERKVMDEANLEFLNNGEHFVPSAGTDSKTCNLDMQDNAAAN
In words: Transporter inhibition. It counts as in vitro ADME. Particulars: 0.5 and 5 μM tested. Here is the method:
as §1

As to `Cc1cc(N2CCN(c3ccc(C(=O)Nc4ccc(F)cc4)cc3)CC2)ccc1OC[C@@H]1CO[C@@](Cn2cncn2)(c2ccc(F)cc2F)C1` [opelconazole], the “minimal inhibitory concentration required to inhibit 90% of clinical strains” value in series [1] was 1 µg/mL. Further, the entries for the “inhibition of MATE2-K relative to solvent control” value against MATE2-K (0.5 μM opelconazole) and against MATE2-K (5 μM opelconazole) were 19% and 52%, respectively. Besides, at OAT1, the “inhibitory interaction with OAT1” value is recorded as “negligible inhibitory interactions”. Moreover, the “inhibitory interaction with OAT3” value against OAT3 is “negligible inhibitory interactions”. Further, on OCT2 (0.5 μM opelconazole), the “inhibitory interaction with OCT2” value is “negligible inhibitory interactions”. For the same compound, the “inhibition of OCT2 relative to solvent control” value against OCT2 (5 μM opelconazole) came to 39%. Further, the “inhibitory interaction with OATP1B3” value against OATP1B3 was “negligible inhibitory interactions”.
